IC50, CC50 and Activity data for three molecules are collected here from ChEMBL document CHEMBL5625224, “Identification of [1,2,4]Triazolo[4,3-a]pyrazine PARP1 inhibitors with overcome acquired resistance activities” (Eur J Med Chem, 2023).

Series [1] has as its target T1, Poly [ADP-ribose] polymerase 1 (Homo sapiens, UniProt P09874). The series is described as follows: Inhibition of PARP1 (unknown origin).
A short description of series [2]: Cytotoxicity against Chinese hamster V-C8 BRCA2-/- cells assessed as reduction in cell viability. It counts as toxicity, cell-based, Cricetulus griseus.
The next series relates to MDA-MB-436. The experiment in a line: Antiproliferative activity against human MDA-MB-436 BRCA1-/- cells assessed as inhibition of cell growth incubated for 7 days by CCK-8 assay. It counts as functional, cell-based. Conditions: MDA-MB-436, 168 h. Background: Tetrazolium dyes change colour on reduction, which living cells bring about.
Series [3] concerns Olaparib-resistant CAPAN-1. The experiment in a line: Antiproliferative activity against human Olaparib-resistant CAPAN-1 cells assessed as inhibition of cell growth incubated for 7 days by CCK-8 assay. It counts as functional, cell-based. Conditions: Olaparib-resistant CAPAN-1, 168 h.
A short description of series [4]: Antiproliferative activity against human Talazoparib-resistant CAPAN-1 cells assessed as inhibition of cell growth incubated for 7 days by CCK-8 assay. It counts as functional, cell-based. Conditions: CAPAN-1, 168 h.
A short description of series [5]: Antiproliferative activity against human Simmiparib-resistant CAPAN-1 cells assessed as inhibition of cell growth incubated for 7 days by CCK-8 assay. Format: functional, cell-based. The note with it: CAPAN-1, 168 h.
The subject of series [6] is CAPAN-1. The series is described as follows: Induction of apoptosis in human CAPAN-1 cells assessed as early apoptotic cells at 1 uM incubated for 48 hrs by Annexin-V/PI staining based flow cytometry analysis (reference value: 10.1%). Format: functional. On the technique in general: Flow cytometry measures light scatter and fluorescence of single cells or particles in a stream.

Series [7] concerns CAPAN-1. The experiment in a line: Induction of apoptosis in human CAPAN-1 cells assessed as late apoptotic cells at 1 uM incubated for 48 hrs by Annexin-V/PI staining based flow cytometry analysis (reference value: 4.95%). Format: functional.
The subject of series [8] is Olaparib-resistant CAPAN-1. The series is described as follows: Induction of apoptosis in human Olaparib-resistant CAPAN-1 cells assessed as early apoptotic cells at 1 uM incubated for 48 hrs by Annexin-V/PI staining based flow cytometry analysis (reference value: 8.50%). Format: functional.
The subject of series [9] is Olaparib-resistant CAPAN-1. The series is described as follows: Induction of apoptosis in human Olaparib-resistant CAPAN-1 cells assessed as late apoptotic cells at 1 uM incubated for 48 hrs by Annexin-V/PI staining based flow cytometry analysis (reference value: 3.67%). Format: functional.
Series [10] has as its target T1, Poly [ADP-ribose] polymerase 1. The series is described as follows: Inhibition of PARP1 (unknown origin) incubated for 1 hr by ELISA analysis. In general terms: ELISA stands for enzyme-linked immunosorbent assay.
Series [11] deals with CAPAN-1. The experiment in a line: Antiproliferative activity against human CAPAN-1 BRCA2-/- cells assessed as inhibition of cell growth incubated for 7 days by CCK-8 assay. It counts as functional, cell-based. Conditions: CAPAN-1, 168 h.
For series [12], the target named is Voltage-gated inwardly rectifying potassium channel KCNH2 (Homo sapiens, UniProt Q12809). The experiment in a line: Inhibition of hERG. It counts as toxicity.
Voltage-gated inwardly rectifying potassium channel KCNH2, sequence (Q12809 whole entry): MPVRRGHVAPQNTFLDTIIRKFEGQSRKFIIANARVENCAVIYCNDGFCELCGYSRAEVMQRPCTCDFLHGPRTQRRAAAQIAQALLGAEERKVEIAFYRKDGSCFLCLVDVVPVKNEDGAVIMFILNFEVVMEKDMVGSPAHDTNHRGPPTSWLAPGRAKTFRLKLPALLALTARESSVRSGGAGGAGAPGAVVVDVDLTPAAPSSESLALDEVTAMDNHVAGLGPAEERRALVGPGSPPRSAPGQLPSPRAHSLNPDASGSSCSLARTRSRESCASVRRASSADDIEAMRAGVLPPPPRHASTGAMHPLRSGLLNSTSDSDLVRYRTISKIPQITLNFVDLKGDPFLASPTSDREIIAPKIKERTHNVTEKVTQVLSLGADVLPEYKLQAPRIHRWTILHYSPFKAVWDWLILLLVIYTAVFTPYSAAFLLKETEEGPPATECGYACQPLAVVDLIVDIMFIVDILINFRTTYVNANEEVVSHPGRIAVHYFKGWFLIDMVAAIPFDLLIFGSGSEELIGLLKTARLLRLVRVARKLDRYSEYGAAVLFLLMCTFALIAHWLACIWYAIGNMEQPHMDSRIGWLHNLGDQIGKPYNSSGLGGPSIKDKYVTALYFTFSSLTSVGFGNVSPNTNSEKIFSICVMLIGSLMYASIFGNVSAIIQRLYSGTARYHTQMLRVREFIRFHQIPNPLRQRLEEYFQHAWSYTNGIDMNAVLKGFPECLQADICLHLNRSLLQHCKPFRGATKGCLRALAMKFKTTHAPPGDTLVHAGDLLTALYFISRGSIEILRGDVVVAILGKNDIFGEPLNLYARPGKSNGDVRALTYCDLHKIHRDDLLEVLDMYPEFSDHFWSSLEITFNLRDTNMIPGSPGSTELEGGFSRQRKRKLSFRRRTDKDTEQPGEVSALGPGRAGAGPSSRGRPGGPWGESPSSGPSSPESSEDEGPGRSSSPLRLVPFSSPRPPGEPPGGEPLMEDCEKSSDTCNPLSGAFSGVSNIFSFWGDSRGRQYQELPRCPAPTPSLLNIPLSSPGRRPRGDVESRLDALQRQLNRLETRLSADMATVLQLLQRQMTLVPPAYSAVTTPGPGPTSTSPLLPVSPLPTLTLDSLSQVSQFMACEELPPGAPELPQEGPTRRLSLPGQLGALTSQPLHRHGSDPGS
For series [13], the system named is CAPAN-1. The experiment in a line: Induction of DNA double strand breaks in human CAPAN-1 cells assessed as gamma-H2AX foci formation at 0.1 to 1 uM incubated for 24 hrs by DAPI staining based confocal microscopic analysis. It counts as functional, cell-based. Conditions: dose 0.1-1 µM.
The subject of series [14] is CAPAN-1. The series is described as follows: Induction of DNA double strand breaks in human CAPAN-1 cells assessed as effect on RPA32 phosphorylation at 0.1 to 1 uM incubated for 24 hrs by DAPI staining based confocal microscopic analysis. The note with it: dose 0.1-1 µM. It counts as functional, cell-based.
Series [15] concerns Olaparib-resistant CAPAN-1. The experiment in a line: Induction of DNA double strand breaks in human Olaparib-resistant CAPAN-1 cells assessed as gamma-H2AX foci formation at 0.1 to 1 uM incubated for 24 hrs by DAPI staining based confocal microscopic analysis. Format: functional, cell-based. The note with it: dose 0.1-1 µM.
Series [16] deals with Olaparib-resistant CAPAN-1. The experiment in a line: Induction of DNA double strand breaks in human Olaparib-resistant CAPAN-1 cells assessed as effect on RPA32 phosphorylation at 0.1 to 1 uM incubated for 24 hrs by DAPI staining based confocal microscopic analysis. Format: functional, cell-based. The note with it: dose 0.1-1 µM.
Series [17] relates to CAPAN-1. The experiment in a line: Induction of DNA double strand breaks in human CAPAN-1 cells assessed as increase in gamma-H2AX level at 0.1 to 1 uM incubated for 24 hrs by Western blot analysis. It counts as functional, cell-based. The note with it: dose 0.1-1 µM.
The subject of series [18] is CAPAN-1. The series is described as follows: Induction of DNA double strand breaks in human CAPAN-1 cells assessed as increase in RPA32 phosphorylation at 0.1 to 1 uM incubated for 24 hrs by Western blot analysis. Format: functional, cell-based. Conditions: dose 0.1-1 µM.
The test system of series [19] is CAPAN-1. The series is described as follows: Induction of DNA double strand breaks in human CAPAN-1 cells assessed as increase in Chk1 phosphorylation at 0.1 to 1 uM incubated for 24 hrs by Western blot analysis. It counts as functional, cell-based. Conditions: dose 0.1-1 µM.
Series [20] deals with CAPAN-1. The series is described as follows: Induction of DNA double strand breaks in human CAPAN-1 cells assessed as increase in p-ATM foci formation at 0.1 to 1 uM incubated for 24 hrs by DAPI staining based confocal microscopic analysis. It counts as functional, cell-based. The note with it: dose 0.1-1 µM.
The test system of series [21] is Olaparib-resistant CAPAN-1. The experiment in a line: Induction of DNA double strand breaks in Olaparib-resistant human CAPAN-1 cells assessed as increase in p-ATM foci formation at 0.1 to 1 uM incubated for 24 hrs by DAPI staining based confocal microscopic analysis. The note with it: dose 0.1-1 µM. It counts as functional, cell-based.
For series [22], the system named is CAPAN-1. The experiment in a line: Induction of cell cycle arrest in human CAPAN-1 cells assessed as accumulation of cell at G2/M phase at 0.1 uM incubated for 24 hrs by […] staining based flow cytometry analysis. Format: functional.
The subject of series [23] is CAPAN-1. The experiment in a line: Induction of cell cycle arrest in human CAPAN-1 cells assessed as accumulation of cell at S phase at 0.5 to 1 uM incubated for 24 hrs by […] staining based flow cytometry analysis. The note with it: dose 0.5-1 µM. It counts as functional.
Series [24] relates to Olaparib-resistant CAPAN-1. The series is described as follows: Induction of cell cycle arrest in human Olaparib-resistant CAPAN-1 cells assessed as accumulation of cell at S phase at 0.5 to 1 uM incubated for 24 hrs by […] staining based flow cytometry analysis. Conditions: dose 0.5-1 µM. Format: functional.
In series [25] the test system is CAPAN-1. The series is described as follows: Induction of apoptosis in human CAPAN-1 cells assessed as early apoptotic cells at 0.1 uM incubated for 48 hrs by Annexin-V/PI staining based flow cytometry analysis (reference value: 10.1%). Format: functional.
Series [26] has as its system CAPAN-1. The experiment in a line: Induction of apoptosis in human CAPAN-1 cells assessed as late apoptotic cells at 0.1 uM incubated for 48 hrs by Annexin-V/PI staining based flow cytometry analysis (reference value: 4.95%). Format: functional.
Series [27] deals with CAPAN-1. The experiment in a line: Induction of apoptosis in human CAPAN-1 cells assessed as early apoptotic cells at 0.5 uM incubated for 48 hrs by Annexin-V/PI staining based flow cytometry analysis (reference value: 10.1%). It counts as functional.
Series [28] has as its system CAPAN-1. The experiment in a line: Induction of apoptosis in human CAPAN-1 cells assessed as late apoptotic cells at 0.5 uM incubated for 48 hrs by Annexin-V/PI staining based flow cytometry analysis (reference value: 4.95%). Format: functional.
Series [29] relates to Olaparib-resistant CAPAN-1. The series is described as follows: Induction of apoptosis in human Olaparib-resistant CAPAN-1 cells assessed as early apoptotic cells at 0.1 uM incubated for 48 hrs by Annexin-V/PI staining based flow cytometry analysis (reference value: 8.50%). It counts as functional.
Series [30] deals with Olaparib-resistant CAPAN-1. The series is described as follows: Induction of apoptosis in human Olaparib-resistant CAPAN-1 cells assessed as late apoptotic cells at 0.1 uM incubated for 48 hrs by Annexin-V/PI staining based flow cytometry analysis (reference value: 3.67%). It counts as functional.
Series [31] concerns Olaparib-resistant CAPAN-1. The series is described as follows: Induction of apoptosis in human Olaparib-resistant CAPAN-1 cells assessed as early apoptotic cells at 0.5 uM incubated for 48 hrs by Annexin-V/PI staining based flow cytometry analysis (reference value: 8.50%). Format: functional.
For series [32], the system named is Olaparib-resistant CAPAN-1. The series is described as follows: Induction of apoptosis in human Olaparib-resistant CAPAN-1 cells assessed as late apoptotic cells at 0.5 uM incubated for 48 hrs by Annexin-V/PI staining based flow cytometry analysis (reference value: 3.67%). It counts as functional.

By IC50 is commonly meant the concentration that gives 50% inhibition. The term CC50 denotes the concentration that lowers cell viability or growth by half.

Calls of active or inactive are those of the source. No cut-off for these calls is given here.

T1 sequence (P09874 whole entry): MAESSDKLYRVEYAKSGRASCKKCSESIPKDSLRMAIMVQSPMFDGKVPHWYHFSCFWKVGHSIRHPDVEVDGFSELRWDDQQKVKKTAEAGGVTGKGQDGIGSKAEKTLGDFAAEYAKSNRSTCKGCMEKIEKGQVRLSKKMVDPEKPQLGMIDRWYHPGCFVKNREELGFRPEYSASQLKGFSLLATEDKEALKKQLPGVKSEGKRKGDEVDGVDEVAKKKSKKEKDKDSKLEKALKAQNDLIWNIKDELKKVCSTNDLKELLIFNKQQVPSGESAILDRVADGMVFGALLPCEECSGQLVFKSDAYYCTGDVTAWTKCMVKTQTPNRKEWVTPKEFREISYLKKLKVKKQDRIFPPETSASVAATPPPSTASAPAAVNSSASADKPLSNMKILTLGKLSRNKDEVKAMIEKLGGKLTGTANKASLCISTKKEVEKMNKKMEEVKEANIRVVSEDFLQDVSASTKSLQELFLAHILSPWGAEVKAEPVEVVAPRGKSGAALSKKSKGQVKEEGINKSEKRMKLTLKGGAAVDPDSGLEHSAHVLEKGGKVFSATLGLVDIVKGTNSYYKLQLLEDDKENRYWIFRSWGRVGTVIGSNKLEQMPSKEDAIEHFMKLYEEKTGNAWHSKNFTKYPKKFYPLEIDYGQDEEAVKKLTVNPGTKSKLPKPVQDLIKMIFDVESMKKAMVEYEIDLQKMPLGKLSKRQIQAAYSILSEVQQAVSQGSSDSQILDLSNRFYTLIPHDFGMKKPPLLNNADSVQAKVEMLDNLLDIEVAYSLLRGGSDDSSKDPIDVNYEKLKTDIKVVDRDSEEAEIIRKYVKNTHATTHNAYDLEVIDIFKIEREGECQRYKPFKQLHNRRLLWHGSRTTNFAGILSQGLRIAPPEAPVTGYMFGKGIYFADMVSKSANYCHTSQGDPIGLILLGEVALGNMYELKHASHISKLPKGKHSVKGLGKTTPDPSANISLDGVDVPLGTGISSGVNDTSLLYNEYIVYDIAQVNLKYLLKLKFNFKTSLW

In turn, `O=C1CC2c3c(cccc31)CCN2C(=O)c1cc(Cc2n[nH]c(=O)c3ccccc23)ccc1F` (stereo unspecified) returned a half-inhibitory concentration (IC50) in series [1] of 3.46 nM. Besides, the CC50 in series [2] came to 4.53 nM.
As to `O=C(c1cc(Cc2n[nH]c(=O)c3ccccc23)ccc1F)N1CCN(C(=O)C2CC2)CC1` [OLAPARIB], the IC50 came to 43.2 nM in the series on MDA-MB-436, 40 nM in [3], 11500 nM in series [4] and 27600 nM in series [5]. Moreover, the Activity worked out at 16.2% in the series on CAPAN-1 [6], 4.5% with CAPAN-1 [7], 11.5% in series [8] and 4.02% in series [9].
Regarding `COc1cccc(-c2nnc3n2C(C)CN(C(=O)c2cc(Cc4n[nH]c(=O)c5ccccc45)ccc2F)C3)n1` (stereo unspecified), the concentration for half-maximal inhibition (IC50) in series [10] was 0.6 nM; with MDA-MB-436, under 0.3 nM; in the series with CAPAN-1 [11], under 0.3 nM; in series [3], 0.3 nM; in series [4], under 0.3 nM; in series [5], 0.3 nM. For the same molecule, the IC50 in series [12] was found to be 17500 nM. In addition, the result (in the series on CAPAN-1 [13]; with CAPAN-1 [14]; in series [15]; in [16]; with CAPAN-1 [17]; in the series with CAPAN-1 [18]) was Active. For the same molecule, the result (in the series with CAPAN-1 [19]; in the series on CAPAN-1 [20]; in series [21]; in the series on CAPAN-1 [22]; in the series with CAPAN-1 [23]; in [24]) was Active. Further, the Activity is given as 37.9% in the series on CAPAN-1 [25]; 17.7% with CAPAN-1 [26]; 40.7% in the series on CAPAN-1 [27]; 42% in the series with CAPAN-1 [28]; 41% in the series on CAPAN-1 [6]; 43.9% in the series on CAPAN-1 [7]. The Activity in series [29] turned out to be 17.6%; in [30], 4.6%; in series [31], 39.1%; in [32], 29%; in series [8], 36.6%; in series [9], 30.7%.
